The source made the active and inactive calls. No cut-off for these calls is given here.
Tests used:
[1] = system: HK-2; test: Inhibition of cisplatin-induced DNA damage in human HK-2 cells assessed as reduction in cleaved-PARP level at 2.5 to 10 uM by Western blot analysis; type: functional, cell-based; settings: dose 2.5-10 µM
[2] = system: HK-2; test: Inhibition of cisplatin-induced DNA damage in human HK-2 cells assessed as reduction in p-histone-H2AX level at 2.5 to 10 uM by Western blot analysis; type: functional, cell-based; settings: dose 2.5-10 µM
[3] = system: Cell membrane; test: Induction of mitochondrial membrane potential loss in human HK-2 cells assessed as increase in sirtuin 3 expression by Western blot analysis; type: cell membranes; settings: dose 2.5-10 µM
[4] = system: Cell membrane; test: Induction of mitochondrial membrane potential loss in human HK-2 cells assessed as increase in OPA1 expression by Western blot analysis; type: cell membranes; settings: dose 2.5-10 µM
[5] = system: HK-2; test: Protection against cisplatin-induced apoptosis in human HK-2 cells assessed as improvement in cell number preincubated with compound for 2 hrs followed by cisplatin induction and measured after 48 hrs by light microscopic analysis; type: functional, cell-based; settings: dose 2.5-10 µM, time 50.0 hrs
[6] = system: HK-2; test: Effect on OCT1 mRNA level in human HK-2 cells by transcriptome sequencing analysis; type: functional, cell-based
[7] = system: HK-2; test: Induction of autophagy in human HK-2 cells assessed as upregulation of LC3II expression at 2.5 to 10 uM by Western blotting analysis; type: functional, cell-based; settings: dose 2.5-10 µM
[8] = system: HK-2; test: Upregulation of PI3K gene expression in human HK-2 cells by KEGG analysis; type: functional, cell-based
[9] = system: NCI-H1299; test: Cytotoxicity against human NCI-H1299 cells; type: functional, cell-based
[10] = system: HK-2; test: Effect on SLC47A1 mRNA level in human HK-2 cells by transcriptome sequencing analysis; type: functional, cell-based
[11] = system: HK-2; test: Effect on ATP7A mRNA level in human HK-2 cells by transcriptome sequencing analysis; type: functional, cell-based; settings: dose 2.5-10 µM
[12] = system: HK-2; test: Effect on MRP1 mRNA level in human HK-2 cells by transcriptome sequencing analysis; type: functional, cell-based
[13] = system: Lewis lung carcinoma; test: Antitumor activity against cisplatin-induced mouse Lewis lung carcinoma cell line xenografted C57BL/6J mouse assessed as inflammatory cell infiltration at 25 to 50 mg/kg, po preadministered with compound for 2 days followed by cisplatin addition on day 3 and measured 72 hrs post cisplatin administration by H and E staining based analysis; type: functional, organism-based; settings: dose 25-50 mg/kg, time 5.0 day
[14] = system: HK-2; test: Upregulation of AMPK gene expression in human HK-2 cells by KEGG analysis; type: functional, cell-based
[15] = system: NCI-H460; test: Cytotoxicity against human NCI-H460 cells; type: functional, cell-based
[16] = system: HK-2; test: Protection against cisplatin-induced apoptosis in human HK-2 cells assessed as reduction in BAX expression preincubated with compound for 2 hrs followed by cisplatin induction and measured after 48 hrs by Western blotting analysis; type: functional, cell-based; settings: dose 2.5-10 µM, time 50.0 hrs
[17] = system: HK-2; test: Induction of autophagy in human HK-2 cells assessed as upregulation of ATG5 expression at 2.5 to 10 uM by Western blotting analysis; type: functional, cell-based; settings: dose 2.5-10 µM
[18] = system: Mus musculus; test: Protection against cisplatin-induced nephrotoxicity in C57BL6/J mouse assessed as reduction in infiltration of inflammatory cells at 100 mg/kg, po preadministered with compound for 2 days followed by cisplatin addition on day 3 and measured 72 hrs post cisplatin administration by H and E staining based analysis; type: functional, organism-based; settings: time 5.0 day
[19] = system: HK-2; test: Upregulation of CTR1 mRNA level in human HK-2 cells at 2.5 to 10 uM by RT-qPCR analysis; type: functional, cell-based; settings: dose 2.5-10 µM
[20] = system: Lewis lung carcinoma; test: Cytotoxicity against mouse Lewis lung carcinoma cell line; type: functional, cell-based
[21] = system: HK-2; test: Induction of autophagy in human HK-2 cells assessed as […] at 2.5 to 10 uM by Western blotting analysis; type: functional, cell-based; settings: dose 2.5-10 µM
[22] = system: HK-2; test: Induction of autophagy in human HK-2 cells assessed as upregulation of AMPKalpha expression at 2.5 to 10 uM by Western blotting analysis; type: functional, cell-based; settings: dose 2.5-10 µM
[23] = system: Lewis lung carcinoma; test: Antitumor activity against cisplatin-induced mouse Lewis lung carcinoma cell line xenografted C57BL/6J mouse assessed as reduction in tumor mass at 25 to 100 mg/kg, po preadministered with compound for 2 days followed by cisplatin addition on day 3 and measured 72 hrs post cisplatin administration; type: functional, organism-based; settings: dose 25-100 mg/kg, time 5.0 day
[24] = system: HK-2; test: Upregulation of ATP7B mRNA level in human HK-2 cells at 2.5 to 10 uM by RT-qPCR analysis; type: functional, cell-based; settings: dose 2.5-10 µM
[25] = system: Mus musculus; test: Protection against cisplatin-induced nephrotoxicity in C57BL6/J mouse assessed as reduction in BUN level in kidney at 25 to 100 mg/kg, po preadministered with compound for 2 days followed by cisplatin addition on day 3 and measured 72 hrs post cisplatin administration; type: functional, organism-based; settings: dose 25-100 mg/kg, time 5.0 day
[26] = system: HK-2; test: Protection against cisplatin-induced apoptosis in human HK-2 cells assessed as reduction in cleaved caspase 3 expression preincubated with compound for 2 hrs followed by cisplatin induction and measured after 48 hrs by Western blot analysis; type: functional, cell-based; settings: dose 2.5-10 µM, time 50.0 hrs
[27] = Antitumor activity against cisplatin-induced mouse Lewis lung carcinoma cell line xenografted C57BL/6J mouse assessed as reduction in tumor mass at 25 to 50 mg/kg, po preadministered with compound for 2 days followed by cisplatin addition on day 3 and measured 72 hrs post cisplatin administration; type: functional; parameters: scale not given: the % may be the effect or the level left; settings: dose 25-50 mg/kg, time 5 day
[28] = system: HK-2; test: Reduction in intracellular cisplatin accumulation in human HK-2 cells by ICP-MS analysis; type: functional, cell-based; settings: dose 2.5-10 µM
[29] = system: HK-2; test: Upregulation of ATP7A mRNA level in human HK-2 cells at 2.5 to 10 uM by RT-qPCR analysis; type: functional, cell-based; settings: dose 2.5-10 µM
[30] = system: Mus musculus; test: Protection against cisplatin-induced nephrotoxicity in po dosed C57BL6/J mouse assessed as reduction in SCR level in kidney Preadministered with compound for 2 days followed by cisplatin addition on day 3 and measured 72 hrs post cisplatin administration; type: functional, organism-based; settings: dose 25-100 mg/kg, time 5.0 day
[31] = system: HK-2; test: Upregulation of AKT gene expression in human HK-2 cells by KEGG analysis; type: functional, cell-based
[32] = system: HK-2; test: Effect on ATP7B mRNA level in human HK-2 cells by transcriptome sequencing analysis; type: functional, cell-based; settings: dose 2.5-10 µM
[33] = system: Cell membrane; test: Induction of mitochondrial membrane potential loss in human HK-2 cells at 2.5 to 10 uM by JC-1 staining based laser microscopic analysis; type: cell membranes; settings: dose 2.5-10 µM
[34] = system: HK-2; test: Effect on OCT2 mRNA level in human HK-2 cells by transcriptome sequencing analysis; type: functional, cell-based
[35] = system: HK-2; test: Upregulation of ATP7B level in human HK-2 cells at 2.5 to 10 uM by Western blot analysis; type: functional, cell-based; settings: dose 2.5-10 µM
[36] = system: HCT-116; test: Cytotoxicity against human HCT-116 cells; type: functional, cell-based
[37] = system: HK-2; test: Induction of autophagy in human HK-2 cells assessed as upregulation of PI3K class III expression at 2.5 to 10 uM by Western blotting analysis; type: functional, cell-based; settings: dose 2.5-10 µM
[38] = system: HK-2; test: Upregulation of ATP7A level in human HK-2 cells at 2.5 to 10 uM by Western blot analysis; type: functional, cell-based; settings: dose 2.5-10 µM
[39] = system: HK-2; test: Protection against cisplatin-induced apoptosis in human HK-2 cells assessed as improvement in cell morphology preincubated with compound for 2 hrs followed by cisplatin induction and measured after 48 hrs by light microscopic analysis; type: functional, cell-based; settings: dose 2.5-10 µM, time 50.0 hrs
[40] = system: HK-2; test: Protection against cisplatin-induced apoptosis in human HK-2 cells preincubated with compound for 2 hrs followed by cisplatin induction and measured after 48 hrs by FITC/PI staining based flow cytometry analysis; type: functional, cell-based; settings: dose 2.5-10 µM, time 50.0 hrs
[41] = system: HK-2; test: Induction of autophagy in human HK-2 cells assessed as upregulation of beclin1 expression at 2.5 to 10 uM by Western blotting analysis; type: functional, cell-based; settings: dose 2.5-10 µM
[42] = system: HK-2; test: Inhibition of cisplatin-induced DNA damage in human HK-2 cells assessed as […] in comet tail length by comet assay; type: functional, cell-based; settings: dose 2.5-10 µM

Q: Which inhibition [1] does the source give for `COc1c(CO)c(OC)c(C(=O)c2ccccc2)c2c1C[C@H]1CC/C(C)=C/CC(C)(C)/C=C/C[C@]1(C)O2` here?
A: Active

Q: And the inhibition [2]?
A: Active

Q: And the Activity [3]?
A: Active

Q: What about the Activity [4] of the same compound?
A: Active

Q: What about the Activity [5] of the same compound?
A: Dose-Dependent Effect

Q: And the Activity [6]?
A: inactive

Q: What about the Activity [7] of the same compound?
A: Active

Q: And the Activity [8]?
A: Active

Q: What about the Activity [9] of the same compound?
A: Active

Q: And the Activity [10]?
A: inactive

Q: What about the Activity [11] of the same compound?
A: Dose-Dependent Effect

Q: What about the Activity [12] of the same compound?
A: inactive

Q: And the Activity [13]?
A: Active

Q: What about the Activity [14] of the same compound?
A: Active

Q: What about the Activity [15] of the same compound?
A: Active

Q: What about the Activity [16] of the same compound?
A: Dose-Dependent Effect

Q: What about the Activity [17] of the same compound?
A: Active

Q: What about the Activity [18] of the same compound?
A: Active

Q: And the Activity [19]?
A: Active

Q: And the Activity [20]?
A: Active

Q: And the Activity [21]?
A: Active

Q: And the Activity [22]?
A: Active

Q: What about the Activity [23] of the same compound?
A: Active

Q: What about the Activity [24] of the same compound?
A: Active

Q: What about the Activity [25] of the same compound?
A: Active

Q: And the Activity [26]?
A: Dose-Dependent Effect

Q: And the Activity [27]?
A: 28.1%

Q: What about the Activity [28] of the same compound?
A: Dose-Dependent Effect

Q: And the Activity [29]?
A: Active

Q: And the Activity [30]?
A: Dose-Dependent Effect

Q: And the Activity [31]?
A: Active

Q: What about the Activity [32] of the same compound?
A: Dose-Dependent Effect

Q: And the Activity [33]?
A: Active

Q: What about the Activity [34] of the same compound?
A: inactive

Q: What about the Activity [35] of the same compound?
A: Active

Q: And the Activity [36]?
A: Active

Q: What about the Activity [37] of the same compound?
A: Active

Q: What about the Activity [38] of the same compound?
A: Active

Q: And the Activity [39]?
A: Dose-Dependent Effect

Q: And the Activity [40]?
A: Dose-Dependent Effect

Q: And the Activity [41]?
A: Active

Q: And the inhibition [42]?
A: Dose-Dependent Effect

Q: For `COc1c(C=O)c(OC)c(C(=O)c2ccccc2)c2c1CC1CC/C(C)=C/CC(C)(C)/C=C/CC1(C)O2` (centres undefined), which inhibition [1] is on record?
A: Active

Q: And the inhibition [2]?
A: Active

Q: And the Activity [3]?
A: Active

Q: What about the Activity [4] of the same compound?
A: Active

Q: What about the Activity [5] of the same compound?
A: Dose-Dependent Effect

Q: What about the Activity [6] of the same compound?
A: inactive

Q: What about the Activity [7] of the same compound?
A: Active

Q: What about the Activity [8] of the same compound?
A: Active

Q: What about the Activity [9] of the same compound?
A: Active

Q: What about the Activity [10] of the same compound?
A: inactive

Q: And the Activity [11]?
A: Dose-Dependent Effect

Q: And the Activity [12]?
A: inactive

Q: What about the Activity [13] of the same compound?
A: Active

Q: And the Activity [14]?
A: Active

Q: What about the Activity [15] of the same compound?
A: Active

Q: And the Activity [16]?
A: Dose-Dependent Effect

Q: And the Activity [17]?
A: Active

Q: And the Activity [18]?
A: Active

Q: What about the Activity [19] of the same compound?
A: Active

Q: And the Activity [20]?
A: Active

Q: And the Activity [21]?
A: Active

Q: And the Activity [22]?
A: Active

Q: What about the Activity [23] of the same compound?
A: Active

Q: What about the Activity [24] of the same compound?
A: Active

Q: And the Activity [25]?
A: Active

Q: And the Activity [26]?
A: Dose-Dependent Effect

Q: What about the Activity [27] of the same compound?
A: 31.4%

Q: What about the Activity [28] of the same compound?
A: Dose-Dependent Effect

Q: And the Activity [29]?
A: Active

Q: And the Activity [30]?
A: Dose-Dependent Effect

Q: And the Activity [31]?
A: Active

Q: What about the Activity [32] of the same compound?
A: Dose-Dependent Effect

Q: And the Activity [33]?
A: Active

Q: And the Activity [34]?
A: inactive

Q: And the Activity [35]?
A: Active

Q: What about the Activity [36] of the same compound?
A: Active

Q: What about the Activity [37] of the same compound?
A: Active

Q: And the Activity [38]?
A: Active

Q: What about the Activity [39] of the same compound?
A: Dose-Dependent Effect

Q: And the Activity [40]?
A: Dose-Dependent Effect

Q: And the Activity [41]?
A: Active

Q: And the inhibition [42]?
A: Dose-Dependent Effect

Source: ChEMBL document CHEMBL5550222, “Synthesis and Biological Evaluation of Novel Psidium Meroterpenoid Derivatives against Cisplatin-Induced Acute Kidney Injury” (J Med Chem, 2024)
